# Measured values from PMC4375495 (The Journal of Biological Chemistry, 2015).
# Assays:
# PI3Kδ-p85α = PI3Kδ-p85α (Mus musculus, UniProt O35904); assay: Reversibility (dilution) assay; format: biochemical, murine; conditions: preincubation 1 h with 400 nM idelalisib or 100 nM wortmannin; 10 μM PIP2, 300 μM ATP
# Experimental: One microliter of solution was transferred to 99 μl of reaction buffer solution containing 10 μM PIP2 and 300 μM ATP to initiate the enzyme reaction. At 5-min intervals, samples from each reaction were quenched with HTRF stop solution, and fluorescence was measured using the detection kit as described above. The reactions were measured over a time frame of 40 min. […] The data were analyzed with linear least square fits to obtain reaction rates.
# ΔABD-p110δ = target: T1, ΔABD-p110δ (Mus musculus, UniProt O35904); assay: Surface plasmon resonance binding assay (Biacore); design: species or system murine; conditions: for dissociation from the protein during the dissociation phase: idelalisib 0.12-30 nM, wortmannin 2 μM, 1-hour dissociation phase
# T1 construct: digested with the rTEV protease to remove the iSH2 and ABD domains; made in house
# T1 sequence (O35904 106-1043 limits assumed): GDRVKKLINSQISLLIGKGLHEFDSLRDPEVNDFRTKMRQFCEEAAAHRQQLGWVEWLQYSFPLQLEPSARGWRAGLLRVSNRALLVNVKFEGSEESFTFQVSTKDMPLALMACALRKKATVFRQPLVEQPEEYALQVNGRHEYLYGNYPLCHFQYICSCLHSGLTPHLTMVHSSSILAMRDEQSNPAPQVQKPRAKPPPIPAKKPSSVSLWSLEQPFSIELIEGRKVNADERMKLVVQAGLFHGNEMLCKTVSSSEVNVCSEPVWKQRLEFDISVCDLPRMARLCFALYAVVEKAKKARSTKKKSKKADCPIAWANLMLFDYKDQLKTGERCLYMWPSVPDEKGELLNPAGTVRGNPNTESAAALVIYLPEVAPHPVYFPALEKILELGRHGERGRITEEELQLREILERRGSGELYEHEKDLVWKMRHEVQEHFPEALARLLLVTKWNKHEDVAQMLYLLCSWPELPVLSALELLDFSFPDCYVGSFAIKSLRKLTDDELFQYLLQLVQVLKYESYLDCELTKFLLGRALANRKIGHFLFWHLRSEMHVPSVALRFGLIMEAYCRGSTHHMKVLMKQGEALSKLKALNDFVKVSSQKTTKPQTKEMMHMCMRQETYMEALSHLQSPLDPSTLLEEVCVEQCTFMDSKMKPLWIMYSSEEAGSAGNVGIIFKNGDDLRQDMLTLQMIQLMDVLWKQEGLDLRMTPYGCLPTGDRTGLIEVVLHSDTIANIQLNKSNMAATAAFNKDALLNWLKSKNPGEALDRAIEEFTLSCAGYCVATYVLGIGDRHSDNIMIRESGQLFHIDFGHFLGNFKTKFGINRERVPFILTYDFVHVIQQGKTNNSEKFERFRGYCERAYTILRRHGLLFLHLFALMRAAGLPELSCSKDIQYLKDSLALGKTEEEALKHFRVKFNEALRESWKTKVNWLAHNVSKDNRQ
# Experimental: ΔABD-p110δ was minimally biotinylated using a 1:1 molar ratio of protein to EZ-link sulfo-NHS-LC-LC-biotin (ThermoScientific; catalog no. 21338). […] Following incubation for 1 h at 4 °C, the mixture was desalted using a Zeba spin desalting column (ThermoScientific; catalog no. 89883) pre-equilibrated in Biacore running buffer (25 mM HEPES, pH 7.5, 150 mM NaCl, 5 mM MgCl2, 1 mM TCEP, 5% glycerol, 0.05% P20) to remove any unreacted biotin. […] Characterization of inhibitor binding and dissociation was performed using a Biacore T100 instrument and research grade series S CM5 sensor chips (GE Healthcare; catalog no. BR-1005-30). Before use, CM5 sensor chips were preconditioned using two 6-s pulses each of 100 mM HCl, 50 mM NaOH, 0.5% (w/v) SDS, and deionized H2O at a flow rate of 100 μl/min. Approximately 15,000 response units (RU) of neutravidin was immobilized on all four surfaces via standard amine-coupling chemistry (GE Healthcare; catalog no. BR-1000-50) in HBS-P buffer (10 mM HEPES, pH 7.4, 150 mM NaCl, 0.005% P20). Biotinylated protein was injected over separate flow cells to achieve capture levels ranging between 6,000 and 14,000 response units. Any remaining free sites on neutravidin were blocked with two 5-min pulses of 50 μM EZ-Link-Amine-PEG2-Biotin (ThermoScientific; catalog no. 21346) at a flow rate of 30 μl/min. […] Wortmannin was injected on a separate sensor chip at a concentration of 2 μM for an 8-min association phase and a 1-hour dissociation phase. At the end of each injection cycle, the injection needle and tubing were washed with 50% DMSO using the “extra wash” command. A five-point DMSO concentration series (ranging from 0.8% to 1.2% DMSO) was included to generate a calibration curve to correct for excluded volume effects. Sensorgrams were double-referenced and corrected for solvent effects using Scrubber 2.0c software (Biologic Software, Campbell, Australia) but fitted using both Scrubber and CLAMP software ([23]).
# The data were fitted using a mass transport model ([24], [25]). Three independent surfaces were globally fit for the association and dissociation rates ka and […], while floating the maximum binding response (Rmax) and mass transport (kt) constant for each surface. […] For wortmannin, only an off-rate analysis was performed.
# [1] = tested on: broad panel of 351 kinases and 44 mutant kinases; assay: KINOMEscan kinase panel; format: binding; conditions: 10 μM idelalisib
# Experimental: The enzymatic activity of the class I PI3K isoforms was measured using a time-resolved FRET assay that monitors formation of the product PIP3, because it competes with fluorescently labeled PIP3 for binding to the GRP-1 pleckstrin homology domain protein. An increase in PIP3 product results in a decrease in time-resolved FRET signal as the labeled fluorophore is displaced from the GRP-1. […] After an assay reaction time of 30 min at 25 °C, reactions were terminated with a final concentration of 10 mM EDTA, 10 nM labeled PIP3, and 35 nM europium-labeled GRP-1 detector protein before reading time-resolved FRET on an Envision plate reader (excitation, 340 nm; emission, 615/665 nm; delay, 100 μs; and read window, 500 μs). […] All IC50 values represent geometric mean values of a minimum of four determinations. These assays generally produced results within 3-fold of the reported mean.
# [2] = target: PI3Kδ (murine p110δ-p85α) (Mus musculus, UniProt O35904); assay: biochemical
# PI3Kδ (murine p110δ-p85α), sequence (O35904 whole entry): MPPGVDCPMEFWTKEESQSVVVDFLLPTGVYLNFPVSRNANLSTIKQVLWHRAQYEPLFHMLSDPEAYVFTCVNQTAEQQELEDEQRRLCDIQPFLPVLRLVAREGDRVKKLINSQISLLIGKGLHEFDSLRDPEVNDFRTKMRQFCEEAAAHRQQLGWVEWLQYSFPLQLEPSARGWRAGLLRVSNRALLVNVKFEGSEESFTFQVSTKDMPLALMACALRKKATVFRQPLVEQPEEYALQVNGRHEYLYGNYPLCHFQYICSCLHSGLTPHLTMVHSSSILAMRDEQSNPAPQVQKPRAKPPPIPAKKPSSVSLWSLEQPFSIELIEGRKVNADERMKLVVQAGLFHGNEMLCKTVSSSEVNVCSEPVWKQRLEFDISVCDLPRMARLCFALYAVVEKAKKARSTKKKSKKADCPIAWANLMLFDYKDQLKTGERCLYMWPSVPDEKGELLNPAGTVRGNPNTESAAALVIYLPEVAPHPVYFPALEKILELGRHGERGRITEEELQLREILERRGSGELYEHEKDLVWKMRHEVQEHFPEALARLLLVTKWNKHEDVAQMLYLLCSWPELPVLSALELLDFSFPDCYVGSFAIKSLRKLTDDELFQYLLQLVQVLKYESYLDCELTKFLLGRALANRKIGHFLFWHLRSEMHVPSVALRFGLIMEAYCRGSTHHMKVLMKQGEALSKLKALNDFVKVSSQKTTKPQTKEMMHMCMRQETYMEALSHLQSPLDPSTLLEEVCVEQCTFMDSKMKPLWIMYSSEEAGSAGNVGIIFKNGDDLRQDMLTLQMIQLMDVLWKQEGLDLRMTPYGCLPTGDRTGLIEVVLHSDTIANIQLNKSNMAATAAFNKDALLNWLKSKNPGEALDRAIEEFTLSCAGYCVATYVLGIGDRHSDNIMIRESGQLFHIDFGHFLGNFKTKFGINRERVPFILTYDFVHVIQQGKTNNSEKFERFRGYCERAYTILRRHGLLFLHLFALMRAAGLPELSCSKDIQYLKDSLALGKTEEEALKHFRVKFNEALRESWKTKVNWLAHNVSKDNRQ
# PI3Kδ (murine p110δ-p85α), sequence (P27986 whole entry partner): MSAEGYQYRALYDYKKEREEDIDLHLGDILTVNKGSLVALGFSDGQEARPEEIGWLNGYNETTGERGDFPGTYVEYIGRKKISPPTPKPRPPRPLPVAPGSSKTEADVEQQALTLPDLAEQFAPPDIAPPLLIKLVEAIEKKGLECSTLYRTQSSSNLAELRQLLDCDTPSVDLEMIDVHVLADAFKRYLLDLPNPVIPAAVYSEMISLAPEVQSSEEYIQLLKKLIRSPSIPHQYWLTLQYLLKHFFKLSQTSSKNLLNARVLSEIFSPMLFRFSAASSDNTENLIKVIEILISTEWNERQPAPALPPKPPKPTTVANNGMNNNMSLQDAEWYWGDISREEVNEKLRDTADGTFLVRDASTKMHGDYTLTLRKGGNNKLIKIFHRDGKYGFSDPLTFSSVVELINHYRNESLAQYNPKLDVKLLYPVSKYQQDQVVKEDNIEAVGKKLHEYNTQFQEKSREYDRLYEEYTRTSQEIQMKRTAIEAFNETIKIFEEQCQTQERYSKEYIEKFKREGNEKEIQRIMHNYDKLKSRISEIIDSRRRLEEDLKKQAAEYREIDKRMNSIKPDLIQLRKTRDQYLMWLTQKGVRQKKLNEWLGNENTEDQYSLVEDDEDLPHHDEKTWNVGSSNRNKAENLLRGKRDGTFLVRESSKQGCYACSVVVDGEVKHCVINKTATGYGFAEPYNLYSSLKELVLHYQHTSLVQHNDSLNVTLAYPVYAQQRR
# Source text: All IC50 values represent geometric mean values of a minimum of four determinations.
# [3] = target: recombinant PI3Kδ (p110δ-p85α) (Mus musculus, UniProt O35904); assay: Competition of idelalisib with ATP (HTRF kinetic assay); format: biochemical, murine
# recombinant PI3Kδ (p110δ-p85α), sequence (O35904 whole entry): as the sequence (O35904 whole entry) above
# recombinant PI3Kδ (p110δ-p85α), sequence (P27986 whole entry partner): as the sequence (P27986 whole entry partner) above
# Experimental: After a 1-h preincubation period, PIP2 was added to a final concentration of 10 μM, and ATP was added at concentrations from 0 to 1.5 mM to initiate the reaction. After 45 min, the reactions were quenched with a stop solution from the assay kit. A detection solution was then added to each well, and the mixture was further incubated for 2 h. Time-resolved fluorescence was measured with a Tecan Infinite M1000 plate reader, using an excitation wavelength of 330 nm and emission wavelengths of 620 and 665 nm. The ratio of emission at 665 nm to that at 620 nm was used as the measure of reaction rate. […] Values of α ≫ 1 are indicative of competitive inhibition, values of α approximately equal to 1 imply noncompetitive inhibition, and values of α ≪ 1 are characteristic of uncompetitive inhibitors ([22]).
# [4] = biotinylated p110δ captured on neutravidin, mass transport model, global fit
# PI3Kδ-p85α, sequence (O35904 whole entry): as the sequence (O35904 whole entry) above
# PI3Kδ-p85α, sequence (P27986 whole entry partner): as the sequence (P27986 whole entry partner) above
SMILES,recovery of enzyme activity following 1:100 dilution of the enzyme-inhibitor complex (PI3Kδ-p85α),dissociation from the protein during the dissociation phase (ΔABD-p110δ),most potent percent inhibition seen for any non-PI3K kinase [1],IC50 [2],Ki ([3]; read-out: Ki (inhibition constant)),mode of inhibition (parameter α of the global fit) ([3]; α ≫ 1),off rate kd (ΔABD-p110δ; [4]),on rate ka (ΔABD-p110δ; [4])
COC[C@H]1OC(=O)c2coc3c2[C@@]1(C)C1=C(C3=O)[C@@H]2CCC(=O)[C@@]2(C)C[C@H]1OC(C)=O [wortmannin],did not show detectable recovery of activity upon dilution,no dissociation after 1 h,–,–,–,–,–,–
"CC[C@H](Nc1ncnc2[nH]cnc12)c1nc2cccc(F)c2c(=O)n1-c1ccccc1 [Idelalisib, 5-fluoro-3-phenyl-2-[(1S)-1-(9H-purin-6-ylamino)propyl]quinazolin-4(3H)-one]",enzyme activity was quickly recovered,complete dissociation,47%,19 nM,1.5 ± 0.1 nM,ATP-competitive inhibition,0.00634 s⁻¹,5.18e+06 M⁻¹ s⁻¹
